Source: US12365698B2, “Application of boron dipyrromethene derivatives in anti-tumor and anti-bacterial therapy” (biolitec Unternehmensbeteiligungs III AG, priority 2019, dated 2025)

Tests used:
[1] = system: Staphylococcus aureus DSM 11729; assay: Antibacterial testing (CFU/ml count, with and without white light); format: cell-based; settings: for antibacterial activity in the presence of complex media (serum addition): PBS supplemented with 10% horse blood serum; for antibacterial activity in the presence of complex media (serum addition) / antibacterial activity of compounds which carry just one bromine atom: bacterium not given; for antibacterial activity against S. aureus in the absence of light: highest tested concentration of 100 μmol
Method: The organisms studied were Staphylococcus aureus DSM 11729, Gram-positive and Pseudomonas aeruginosa DSM 1117, Gram-negative.
Cultures cells are suspended in sterile phosphate-buffered saline (PBS) or sterile PBS supplemented with 10% sterile horse blood serum. The bacterial suspensions are placed into sterile black well plates with clear bottoms. Concentrations of photosensitizer used in the study were as follows: 100 μM, 10 μM and 1 μM.
After an incubation time period of 30 minutes, the samples are exposed to white light, with a power density and irradiation time resulting in an energy fluency of about 100 J/cm^2. Control plates contained no photosensitizer and are not exposed to laser light. The control samples for dark toxicity are only exposed to photosensitizer without any illumination.
After irradiation, the samples are removed and suspended again in the culture media. The numbers of colony-forming units (CFU/ml) are enumerated after an adequate incubation time period.

[2] = system: HT29 tumor cell line and other cell lines; assay: Cell tests: dark toxicity and phototoxicity, XTT cell viability assay; format: cell-based, human, mouse; settings: cell tests of example 3; 2 or 10 μM
Method: The photosensitizing activity was determined in the following cell lines: • HT29 (human colon adenocarcinoma cell line) • L929 (mouse fibroblast cell line) • A431 (human epidermoid carcinoma cell line) • A253 (submaxillary salivary gland, epidermoid cell line) • CAL-27 (human tongue squamous cell carcinoma cell line) • J774A.1 (Mouse BALB/c monocyte macrophage).
The cell lines were grown in DMEM (c.c.pro GmbH) supplemented with 10% heat-inactivated fetal calf serum (FCS, c.c.pro GmbH), 1% penicillin (10000 IU) and streptomycin (10000 μg/ml, c.c.pro GmbH). Cells were kept as a monolayer culture in a humidified incubator (5% CO2 in air at 37° C.).
A photosensitizer stock solution (2 mM) was performed in DMSO and was kept in the dark at 4° C. Further dilution was performed in DMEM medium without phenol red supplemented with 10% FCS to reach a final photosensitizer concentration of 2 or 10 μM, respectively.
After seeding the cells in micro plates, the cells were incubated with fresh medium (DMEM without phenol red) containing 10% FCS with 2 or 10 μM of the photosensitizer for 24 h before light exposure. […]
The cell viability was assessed by the XTT assay. […]
The absorbance of the samples was measured with a microplate reader (infinite 200, Tecan Group Ltd.) at a wavelength of 490 nm.

Compound	antibacterial activity in the presence of complex media (serum addition) [1]	antibacterial activity against S. aureus in the absence of light [1]	antibacterial activity of compounds which carry just one bromine atom [1]	toxicity in cells [2]	specific activity against bacteria ([1]; compared with toxicity in cells)
1,3,5,7-Tetramethyl-2,6-dibromo-8-(4-N-hydroxy-ethylamino-3-nitrophenyl)-boron dipyrromethene [Example 4.2]	antibacterial activity is also observed	high antibacterial activity			
2-Bromo-8-(4-butyloxy-2,3,5,6-tetrafluorophenyl)-boron dipyrromethene [Example 4.11]			strong antibacterial activity		
1,3,5,7-Tetramethyl-2,6-dibromo-8(4-propargylamino-3-nitrophenyl)-boron dipyrromethene [Example 4.5]				low toxicity	specifically active against bacteria
C#CCNc1ccc(C2=C3C=CC=[N+]3[B-](F)(F)n3cc(Br)cc32)cc1[N+](=O)[O-] [Example 4.1, 2-Bromo-8-(4-N-propargylamino-3-nitrophenyl)-boron dipyrromethene]	antibacterial activity is also observed	high antibacterial activity	strong antibacterial activity		
